Experimental data from patent US20140343143A1, “Use of highly concentrated compositions of selected n-3 fatty acids for the treatment of central nervous system disturbances” (priority 2004, published 2014).

Columns and labels:
[1] = system: pentylenetetrazol-induced major motor seizures; assay: Pentylenetetrazol (100 mg/kg i.p.)-induced seizures in rats (Example 4); type: in vivo, rat
Protocol: At the end, all the groups were treated with 100 mg/kg i.p. of pentylenetetrazol, and the animals underwent the following control exams: 1) length of latency period to the first major motor seizures (tonic-clonic contractions of the limbs, trunk and head; falling; saliva and blood discharge from the mouth); 2) number of rats responding with major motor seizures (or protected from seizure); 3) mean duration of the major motor seizure (MMS); 4) number of rats presenting minor clonic contractions (MCC), such as a sudden flexion of the forelegs or extension of the rear legs; 5) number of rats who died within 20 minutes or 5 hours after pentylenetetrazol injection.

[2] = system: seizures in study strain rats; assay: Preliminary determination of the epileptogenic ED50 of pentylenetetrazol; type: in vivo; conditions: Rattus norvegicus, ip, read-out: ED50 (dose effective on 50% of rats) of the epileptogenic agent, i.p., preliminary experiment
[3] = system: amphetamine-induced hyperactivity and risk-taking behaviour; assay: Amphetamine-induced behavioural model of mania, open field test in rats; conditions: sodium valproate 20 mg/kg i.p., short times, preliminary experiment
[4] = daily i.p. 2 weeks: n-3 50 mg/kg, clonazepam 5 mg/kg, or same doses combined, then pentylenetetrazol 100 mg/kg i.p., mean ± SD

SMILES: O=C1CN=C(c2ccccc2Cl)c2cc([N+](=O)[O-])ccc2N1 [clonazepam]
- Duration of seizures [1, 4]: 25 ± 6 s
- Latency to seizures [1, 4]: 203 ± 12 s
- Dead animals <20′ ([1]; died within 20 minutes after pentylenetetrazol injection, n/10): 2/10
- Dead animals <5 h ([1]; died within 5 hours after pentylenetetrazol injection, n/10): 4/10
- Rats with MMS (n/tot) ([1]; major motor seizures, same treatment, pentylenetetrazol 100 mg/kg i.p.): 1/10
- Rats with MCC (n/tot) ([1]; minor clonic contractions, same treatment, pentylenetetrazol 100 mg/kg i.p.): 3/10

SMILES: C1CCc2nnnn2CC1 [pentylenetetrazol]
- ED50 [2]: 70 to 75 mg/kg

SMILES: CCCC(CCC)C(=O)[O-].[Na+] [sodium valproate]
- effect of valproate alone at the dose used in the combination [3]: ineffective when taken alone
